Assay results published in patent US8652439B2, “Compositions of HSP60 peptides and viral antigens for vaccination and diagnosis” (priority 2005, dated 2014).
“Also recorded” adds a separate entry of the source.

Experiments:
MCMV [1] = experiment: Immunization after MCMV challenge in combination with Gancyclovir; MCMV-DNA PCR in salivary glands; type: in vivo, BALB/c mice; settings: day 30 after challenge; GCV i.p. with or without one immunization on day 6
Method: DNA was extracted from naïve and infected spleens and salivary gland using QiAmp Tissue Kit (QIAGEN Inc. Chatsworth, Calif., USA), according to appropriate QiAmp protocols. DNA oligonucleotide primers were synthesized according to the published sequence of MCMV gB gene (Rapp et al., 1992). […]. This gB gene primer pair amplifying a 356 bp segment was found the most sensitive in previous studies (Palmon et al., 1996). For gene amplification, 1 μg of DNA sample was added to the reaction mixture containing 200 μM each dNTP, 100 pmol each primer, 1.0 mM MgSO4, 10 mM KCl, 10 mM (NH4)2SO4, 20 mM Tris-HCl (pH 8.8), 0.1% Triton X-100 and 2 U of vent polymerase (Biolabs) in a total reaction volume of 50 μl each. Samples were amplified for 30 cycles in an automated thermal cycler (Perkin Elmer Cetus, USA). Each cycle entailed denaturation at 94° C. for 60 sec, annealing at 68° C. for 90 sec and primer extension at 72° C. for 120 sec. PCR products were electrophoretically separated on 1.5% agarose gel, stained with ethidium bromide, and photographed. The lower limit of detection for this method under the experimental conditions was 5 femtograms of viral DNA corresponding to about 20 copies of the MCMV genome (Palmon et al., 1996).
3-week old BALB/c mice were challenged i.p. with 5×10^4 pfu of MCMV (day 0). On day 6, mice were immunized once with IFA alone, 89pep or p458-89pep emulsified in IFA, as described above. Mice were treated with 100 μg of the anti viral medication Gancyclovir (GCV, Roche, Basel, Switzerland) i.p. on days 1, 2, 3, 4, 8, 9, 10 and 11 after challenge. Mice were sacrificed on day 30 after challenge and MCMV-DNA was measured by a PCR assay in the salivary glands, as specified above (FIG. 14A).

MCMV [2] = experiment: Infectious MCMV titers in salivary gland of immunized mice after MCMV challenge (plaque assay); type: in vivo, BALB/c mice; settings: for Infectious MCMV titer in salivary gland: immunized twice, peptides in IFA
[3] = system: salivary gland mononuclear cells; experiment: IFNγ-positive salivary gland mononuclear cells 28 days after MCMV challenge of vaccinated mice; type: in vivo, BALB/c mice; settings: 28 days after virus challenge of immunized mice; 8 hr 89pep stimulation
splenocytes = experiment: Proliferation of splenocytes from mice immunized with p15 conjugates, stimulated in vitro with p15; type: in vivo; settings: spleens 10 days after immunization; p15 25 μg/ml, 3 days
Method: (§1) Mice were immunized with the following peptides as described in Example 8 using the following peptides: p15 (SEQ ID NO:11), p32 (SEQ ID NO:13), Ec27-p15 ([…], SEQ ID NO:77), and Mock-p15 ([…], SEQ ID NO:80—the p431 peptide fused to p15).
(§2) Spleens were harvested 10 days after the immunization and splenocytes were cultured with p15 (25 μg/ml) for 3 days. Cell proliferation and IFNγ levels in the supernatants of spleen cell cultures were measured. Results are the average of 3 independent proliferation experiments. Ec27-Ep15* and Ec27-Ep15** are two identical but independent groups in the same experiment.

IFN-γ = IFN-γ secretion of splenocytes from mice immunized with p15 conjugates, stimulated in vitro with p15; type: in vivo; settings: spleens 10 days after immunization; p15 25 μg/ml, 3 days
Method: as §1, §2

IVIG-IL (anti-WNV Abs) = experiment: ELISA recognition of peptides by IVIG-IL; type: binding, human; settings: peptide 1 μg/well; IVIG-IL 1:40 dilution
Method: (§3) ELISA tests were performed according to the method described by Martin et al (Martin et al, 2000) with slight modifications. Briefly, microtiter plates were coated and incubated overnight at 4° C. with 100 μl of the different peptides (1 μg/well) or WNV antigen diluted 1:700 in coating buffer (NaHCO3, pH=9.6). After incubation, the coating buffer was decanted and the plates were washed twice in PBS containing 0.05% Tween 20 and 0.2% sodium azide (washing buffer). After blocking for 1 h with a 200 μl/wen of PBS containing 0.05% Tween 20 and 2.5% nonfat dry milk, the plates were washed 4 times in washing buffer and 100 μl of IVIG-IL or mouse sera at 1:40 dilution were added to each well (2-4 wells per sample). Negative and positive controls of human or mouse sera were tested in each plate. […] The color intensity was measured by ELISA-reader (Dynatec MR 5000) at the absorbance of 405 nm.
(§4) Next, it was examined whether the candidate epitope is recognized by a serum immunoglobulin pool taken from Israeli donors (IVIG-IL), which contains anti-WNV Abs. […] After blocking and washing, IVIG-IL was added at 1:40 dilution and binding was detected. […]

[4] = system: sera from WNV-exposed human subjects; experiment: ELISA recognition of WNV peptides by human sera; type: binding; settings: for Recognition by sera of WNV-exposed and unexposed human subjects: ELISA, peptide as antigen
Method: Sera from WNV-exposed and non-exposed human subjects was assayed for antibodies recognizing the novel WNV peptide antigens, p15 (SEQ ID NO:11) and p17 (SEQ ID NO:21). FIG. 17 presents the results of an ELISA test in which the p15 and p17 served as the antigen, human sera were used as the primary antibody and HRP-conjugated anti-human Abs were used as the secondary antibody. RLU are the relative luminescence units produced by HRP activity on the luminal substrate.
Sera S2 and S6 are from human that were not infected with WNV while sera S1, S3-S5 and S7 are from human that had history of WNV infection.

[5] = system: serum from WNV-infected mice; experiment: ELISA recognition of peptides by serum from WNV-infected mice; type: binding; settings: peptide 1 μg/well; sera 1:40 dilution
Method: as §3, §4

WNV = experiment: Protective efficacy of immunization against WNV challenge (mortality); type: in vivo, BALB/c mice; settings: for Mortality (% deaths) / Mortality (dead of total): 3 immunizations, 10^6 pfu WNV, 21 days post challenge, 5 experiments
IL-4 = IL-4 ELISA of spleen cell cultures after vaccination; type: in vivo, BALB/c mice; settings: spleen cell cultures of immunized mice
IFNγ = IFNγ ELISA of spleen and salivary gland cell cultures after vaccination; type: in vivo, BALB/c mice; settings: 10 days after single immunization; for IFNγ secretion of spleen cells stimulated in vitro with p458: 3 d stimulation with p458
[6] = system: IFNγ-positive spleen cells; experiment: FACS intracellular IFNγ staining of spleen cells after vaccination; type: in vivo, BALB/c mice; settings: 7 days after one immunization; 5 days re-stimulation with 89pep
Method: For phenotypic analysis, spleen and salivary gland mononuclear cells of MCMV-infected and naïve mice were cultured as described above and were stained for CD8 and CD4, IFNγ and IL-5 using directly-labeled antibodies (PharMingen, San Diego, Calif.). Intracellular cell staining (ICCS) for IFNγ, IL-4 and IL-5 was performed using PharMingen's Cytofix/Cytoperm Plus kit with GolgiPlug (containing Brefeldin A) according to the manufacturer's instructions. Briefly, GolgiPlug was added to the 8 h-incubated immune cell cultures (established as described above, with or w/o peptide stimulation). After the additional 6 h of incubation in the incubator cells (minimum 10^6 per sample) were harvested, washed in PBS supplemented with 2% FBS and 0.09% Sodium azide, and incubated in 50 μl of FC blocker, labeled with anti-CD4 and anti-CD8 surface markers. Then cells were fixed, permeabilized and treated with anti-IFNγ, anti-IL-4 or anti-IL-5 antibodies for intracellular cytokine detection. Stained cells were immediately analyzed on a FACSCalibur flow cytometer (Becton-Dickinson, Mansfield, Mass.) and 50,000 to 100,000 events/sample were acquired and analyzed with CellQuest software.
We characterized the nature of cells secreting the IFNγ by flow cytometry. Mice were immunized once with the different peptides and an additional group was infected with MCMV. Seven days later, spleens were removed and cell suspensions were cultured for 5 days with or without 89pep. […] Infection with MCMV and re-stimulation with 89pep induced the highest percentage of IFNγ^+CD8^+ T cells (FIG. 5B). Staining was specific to IFNγ since no CD8^+IL-4^+ or CD8^+IL-5^+ cells were observed.

[7] = system: P815 cells pulsed with the 89pep; experiment: Cytotoxic T cell assay of spleen cell cultures after vaccination; type: in vivo, BALB/c mice; settings: spleens 7 d after one immunization, 6 days re-stimulation with 89pep; P815 loaded with 89pep
Method: The cytotoxic activity against the MCMV 89pep was assessed in a 4-h cytotoxic assay using the CytoTox 96 non-radioactive, colorimetric-based kit (Promega, Madison, Wis.), according to manufacturer instructions. This assay is based on the quantitative measurement of lactate dehydrogenase, a stable cytosolic enzyme that is released upon cell lysis. Spleen cell suspensions from immunized mice, prepared as described above, were re-stimulated in vitro for 6 days with 89pep (10 μg/ml) and rhIL-2 (25 IU/ml) from day 2. Target cells for the lysis assay were P815 cells (mastocytoma, H-2^d). P815 were either non-pulsed or pulsed with 89pep (1 μg/ml) for 2 h and then washed before incubation with effector cells. In all experiments shown, the spontaneous release was less than 25% of maximal release. Each point in a lysis assay represents the average of triplicate values. The range of the triplicates was within 5% of their mean.
We also investigated whether the CD8^+IFNγ^+ cells induced by the p458-89pep were able to lyse specifically 89pep-loaded target cells. Mice were immunized once and 7 d later, spleens were harvested and re-stimulated with 89pep. Six days later, lytic activity was assayed on P815 (H-2^d) loaded with the 89pep. […]

MCMV gB DNA = experiment: PCR of MCMV gB DNA in salivary glands of immunized, MCMV-challenged mice; type: in vivo, BALB/c mice; settings: day 28 after MCMV challenge

Molecule: Nc1nc(O)c2ncn(COC(CO)CO)c2n1 [GCV, Gancyclovir]
- CMV load at the salivary gland (MCMV-DNA PCR) (MCMV [1]): did not suffice for therapy

Molecule: EGDEATGANI-KVALEAYPHFHPTNL (EGDEATGANIKVALEAYPHFHPTNL) [control-89pep]
- Effect of immunization on salivary gland viral load (MCMV [2]; day 28 after MCMV challenge): did not affect the viral load

Molecule: FNNFTVSFWLRVPKVSASHLEYPHFMPTNL [TTp30-89pep]
- CD8+IFNγ+ cells in salivary gland [3]: CD8^+IFNγ^+ cells were observed
- Effect of immunization on salivary gland viral load (MCMV [2]; day 28 after MCMV challenge): reduced viral load on day 28 by two fold; also recorded: failed to eliminate infectious virus on day 28; also recorded: contained infectious virus on day 28 post challenge
- Effect of immunization on salivary gland viral load (MCMV [2]; days 14 and 21 after MCMV challenge): did not affect viral load on days 14 and 21

Molecule: KKARVEDALHATRAAVEEGVLVTVNPFVSVATANS [Ec27-p15]
- Proliferation of spleen cells in the presence of p15 (splenocytes): more effective than p15 alone
- IFN-γ secretion of spleen cells in the presence of p15 (IFN-γ): more effective than p15 alone

Molecule: LVTVNPFVSVATANS [p15]
- Recognition by IVIG-IL (IVIG-IL (anti-WNV Abs)): recognized by IVIG-IL
- Recognition by sera of WNV-exposed and unexposed human subjects [4]: specifically recognized by WNV-exposed sera and not by sera from unexposed subjects
- Recognition by sera from Dengue-infected humans ([4]; data not shown): did not recognize
- Recognition by serum from WNV-infected mice [5]: specifically recognized
- Mortality (% deaths) (WNV): (53%)
- Mortality (dead of total) (WNV): 8/15
- Protective efficacy against WNV challenge (WNV; summary of 5 experiments): slight protective efficacy

Molecule: NEDQKIGIEIIKRALKI [p458]
- IL-4 levels after Con-A stimulation in vitro (IL-4): 184 pg/mL
- IFNγ secretion of spleen cells stimulated in vitro with p458 (IFNγ): high levels of IFNγ
- Mortality (% deaths) (WNV): (57%)
- Mortality (dead of total) (WNV): 4/7

Molecule: NEDQKIGIEIIKRALKIYPHFHPTNL [p458-89pep]
- IFNγ+CD4+ T cells in spleen cell cultures [6]: no IFNγ^+CD4^+ T cells
- IFNγ+CD8+ T cells in spleen cell cultures [6]: induced IFNγ^+CD8^+ T cells
- IL-4 levels after Con-A stimulation in vitro (IL-4): 317 pg/mL
- CD8+IFNγ+ cells in salivary gland [3]: larger than that of the other groups
- 89pep-specific lytic (CTL) activity [7]: lysed the target cells
- CMV load at the salivary gland (MCMV-DNA PCR) (MCMV [1]): reduced viral load to undetectable levels
- IFNγ secretion of spleen cells stimulated in vitro with p458 (IFNγ): high levels of IFNγ
- IFNγ secretion of spleen cells re-stimulated in vitro with 89pep (IFNγ; 3 d stimulation, 89pep 10 μg/ml): significantly higher (p<0.05) levels of IFNγ
- Effect of immunization on salivary gland viral load (MCMV [2]; day 28 after MCMV challenge): showed no infectious MCMV in the salivary gland
- Infectious MCMV titer in salivary gland (MCMV [2]; day 28 after MCMV challenge): < 2 log10 pfu/0.1 g
- MCMV gB PCR product in salivary glands (MCMV gB DNA): failed to reveal any gB PCR product

Molecule: YIVVGRGEQQINHHWHK [p17]
- Recognition by sera of WNV-exposed and unexposed human subjects [4]: specifically recognized by WNV-exposed sera and not by sera from unexposed subjects

Molecule: YPHFHPTNL [89pep]
- IFNγ+CD8+ T cells in spleen cell cultures [6]: very few IFNγ^+CD8^+ T cells
- IL-4 levels after Con-A stimulation in vitro (IL-4): 146 pg/mL
- CD8+IFNγ+ cells in salivary gland [3]: CD8^+IFNγ^+ cells were observed
- 89pep-specific lytic (CTL) activity [7]: No lytic activity was observed
- CMV load at the salivary gland (MCMV-DNA PCR) (MCMV [1]): did not affect CMV load
- Effect of immunization on salivary gland viral load (MCMV [2]; day 28 after MCMV challenge): marginal advantage compared to IFA-immunized mice; also recorded: contained infectious virus on day 28 post challenge
- Infectious MCMV titer in salivary gland (MCMV [2]; day 28 after MCMV challenge): 4.5 log10 pfu/0.1 g
